Measured values: patent US20230202989A1, “COMPOUNDS” (JANSSEN PHARMACEUTICA NV, priority 2020, published 2023)
pEC50, pIC50: −log10 of the molar value. Like-named read-outs stand apart in the source and are kept apart here.

How the values were obtained:
IL-1β = test: PBMC assay: inhibition of IL-1β release after LPS stimulation (MSD); assay type: cell-based; settings: human PBMCs, 100 ng/ml LPS for 6 hrs, MSD, 96 well plates, read-out: IL1β IC50
Summary of the method: (§1)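 TNF (EC50) and IL-1β (IC50) were quantified by MSD in supernatants after 6 h stimulation with 100 ng/ml LPS. Thawed healthy-donor PBMCs, 7.5×10^4 per well, were exposed to 1:3 compound dilutions for 30 min beforehand at 37 °C.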

TNF = test: PBMC assay: TNF cytokine levels after LPS stimulation (MSD); assay type: cell-based; settings: human PBMCs, 100 ng/ml LPS for 6 hrs
Summary of the method: as §1

| pIC50 (IL-1β; Homo sapiens, PBMC, 6 h) | pEC50 (TNF; Homo sapiens, PBMC, 6 h) | Structure (SMILES) | further results |
| --- | --- | --- | --- |
| 6.76 | < 4.70 | O=C(Cn1nc(C2CC2)c2cc(C(F)(F)F)ccc2c1=O)Nc1ccc2nncn2c1 [Final Cpd X23] | melting point: 294.49 °C |
| 6.77 | < 4.70 | CC(C)c1nn(CC(=O)Nc2cc(F)[nH]c(=O)c2)c(=O)c2ccc(C(F)(F)F)cc12 [Final Cpd X22] | melting point: 232.18 °C |
| 6.03 | < 4.70 | CC(C)c1nn(CC(=O)Nc2ccn3ncnc3c2)c(=O)c2ccc(C(F)(F)F)cc12 [Final Cpd X90] | melting point: 215.56 °C |
| 6.79 | < 4.70 | CCN1CC[C@@H](O)[C@@H](NC(=O)Cn2nc(C3CC3)c3cc(C(F)(F)F)ccc3c2=O)C1 [Final Cpd X19] | melting point: 178.86 °C |
| 4.76 | < 4.70 | CCN1CCC[C@@H](NC(=O)Cn2nc(C(C)C)c3cc(C(F)(F)F)ccc3c2=O)C1=O (single isomer, unassigned) [Final Cpd X166] | – |
| 7.05 | < 4.70 | CC(C)c1nn(CC(=O)N[C@H]2C[C@@](C)(O)C2)c(=O)c2ccc(C(C)(F)F)cc12 [X-1062] | – |
| 5.19 | < 4.70 | CC(C)c1nn(CC(=O)N[C@@H]2CC[C@H]2O)c(=O)c2ccc(C(F)(F)F)cc12 (single isomer, unassigned) [Final Cpd X149] | – |
| 6.04 | 4.89 | CC(C)c1nn(CC(=O)N[C@H]2CN(C3CC(F)(F)C3)CC[C@H]2O)c(=O)c2ccc(C(F)(F)F)cc12 [Final Cpd X83] | – |
| 6.25 | < 4.70 | CC(c1nn(CC(=O)Nc2ccc3nncn3c2)c(=O)c2ccc(C(F)(F)F)cc12)C(F)(F)F (stereo not shown) [Final Cpd X59] | – |
| 5.57 | < 4.70 | CC(C)c1nn(CC(=O)Nc2ccc3cn(C)nc3c2)c(=O)c2ccc(C(F)(F)F)cc12 [Final Cpd X123] | – |
| 6.08 | < 4.70 | COC(C)c1nn(CC(=O)N[C@H]2C[C@@](C)(O)C2)c(=O)c2ccc(Br)cc12 (stereo partly shown) [X-1018] | – |
| 6.36 | < 4.70 | Cn1nc(NC(=O)Cn2nc(C(F)F)c3cc(Br)ccc3c2=O)ccc1=O [X-1021] | – |
| 6.17 | < 4.70 | CC(O)c1nn(CC(=O)Nc2ccc3nncn3c2)c(=O)c2ccc(C(F)(F)F)cc12 (stereo not shown) [Final Cpd X66] | – |
| 5.58 | < 4.70 | CC(C)c1nn(CC(=O)NC2(C)CC(O)C2)c(=O)c2ccc(C(F)(F)F)cc12 (stereo not shown) [Final Cpd X121] | – |
| 5.31 | < 4.70 | CC(C)Cc1nn(CC(=O)Nc2ccc3nncn3c2)c(=O)c2ccc(C(F)(F)F)cc12 [Final Cpd X144] | – |
| 6.26 | < 4.70 | Cc1nc2ccc(NC(=O)Cn3nc(C(C)C)c4cc(C(F)(F)F)ccc4c3=O)cn2n1 [Final Cpd X57] | – |
| 6.74 | < 4.70 | O=C(Cn1nc(C(F)F)c2cc(Br)ccc2c1=O)Nc1ccc2nncn2c1 [X-1019] | – |
| 5.60 | 5.02 | CC(C)c1nn(CC(=O)Nc2ccncn2)c(=O)c2ccc(OC(F)(F)F)cc12 [X-1038] | – |
| 6.67 | < 4.70 | CC(C)c1nn(CC(=O)N[C@H]2C[C@@](C)(O)C2)c(=O)c2ccc(C3CC3)cc12 [Final Cpd 32] | – |

| pIC50 (IL-1β; Homo sapiens, PBMC, 6 h) | pEC50 (TNF; Homo sapiens, PBMC, 6 h) | Structure (SMILES) | further results |
| --- | --- | --- | --- |
| 6.12 | < 4.70 | CC(C)c1nn(CC(=O)Nc2ccc3nncn3c2)c(=O)c2c(F)cc(C(F)(F)F)cc12 [Final Cpd X71] | – |
| 5.63 | < 4.70 | CCc1nn(CC(=O)N[C@H]2C[C@@](C)(O)C2)c(=O)c2ccc(N(C)C)cc12 [X-1037] | – |
| 5.24 | < 4.70 | CC(C)c1nn(CC(=O)Nc2ccc3cnn(C(F)F)c3c2)c(=O)c2ccc(C(F)(F)F)cc12 [Final Cpd X146] | – |
| 5.91 | < 5.00 | CCc1nn(CC(=O)Nc2ccncn2)c(=O)c2ccc(OC)cc12 [Final Cpd 11] | – |
| 7.05 | 5.12 | CC(C)c1nn(CC(=O)Nc2ccc3nccn3n2)c(=O)c2ccc(C(C)(C)F)cc12 [X-1011] | – |
| 6.06 | < 4.70 | CC(C)c1nn(CC(=O)N[C@H]2CC[C@](C)(O)CC2)c(=O)c2ccc(C(F)(F)F)cc12 [Final Cpd X78] | – |
| 6.36 | < 4.70 | O=C(Cn1nc(C(F)F)c2cc(C(F)(F)F)ccc2c1=O)Nc1ccncn1 [Final Cpd X50] | – |
| > 6.92 | < 5.00 | CC(C)c1ccc2c(=O)n(CC(=O)Nc3ccc4nncn4c3)nc(C(C)C)c2c1 [Final Cpd 33] | – |
| 4.96 | < 4.70 | CC(C)c1nn(CC(=O)N[C@H]2C[C@@](C)(O)C2)c(=O)c2ccc(C(C)(C)O)cc12 [X-1043] | – |
| 6.84 | 4.78 | CC(C)c1nn(CC(=O)Nc2ccc3nccn3c2)c(=O)c2ccc(C(C)(C)F)cc12 [X-1077] | – |
| 6.06 | < 4.70 | Cc1cnc2ccc(NC(=O)Cn3nc(C(C)C)c4cc(C(F)(F)F)ccc4c3=O)cn12 [Final Cpd X79] | – |
| 7.12 | 4.91 | CCc1nn(CC(=O)Nc2ccc3nncn3c2)c(=O)c2ccc(C(F)(F)F)cc12 [Final Cpd X8] | – |
| 6.48 | < 4.70 | CC(C)c1nn(CC(=O)Nc2ccc3ncnn3c2)c(=O)c2ccc(C(F)(F)F)cc12 [Final Cpd X38] | – |
| 6.35 | < 4.70 | CC(C)c1nn(CC(=O)Nc2cc(Br)c3nncn3c2)c(=O)c2ccc(C(F)(F)F)cc12 [Final Cpd X52, N-(8-Bromo-[1,2,4]triazolo[4,3-a]pyridin-6-yl)-2-(4-isopropyl-1-oxo-6-(trifluoromethyl)phthalazin-2(1H)-yl)acetamide] | – |
| 5.77 | 5.10 | COC(C)c1nn(CC(=O)Nc2ccncn2)c(=O)c2ccc(C(F)(F)F)cc12 (stereo not shown) [Final Cpd X111] | – |
| 6.34 | < 4.70 | O=C(Cn1nc(C2CC2)c2cc(Cl)ccc2c1=O)Nc1ccc2nncn2n1 [X-1002] | – |
| 5.89 | < 4.70 | CC(C)c1nn(CC(=O)Nc2ccc3cnnn3c2)c(=O)c2ccc(C(F)(F)F)cc12 [Final Cpd X101] | – |
| 6.23 | < 4.70 | O=C(Cn1nc(C(O)C(F)(F)F)c2cc(C(F)(F)F)ccc2c1=O)Nc1ccc2nncn2c1 (stereo not shown) [Final Cpd X61] | – |
| < 4.70 | < 4.70 | CCc1nn(CC(=O)Nc2ccn(C(C)C)n2)c(=O)c2ccc(C3CC3)cc12 [X-1026] | – |

| pIC50 (IL-1β; Homo sapiens, PBMC, 6 h) | pEC50 (TNF; Homo sapiens, PBMC, 6 h) | Structure (SMILES) | further results |
| --- | --- | --- | --- |
| – | – | CC(C)c1nn(CC(=O)N[C@H]2CC[C@@H]2O)c(=O)c2ccc(C(F)(F)F)cc12 [Final Cpd X91] | pIC50 (IL-1β): 6.02; pEC50 (TNF): < 4.70 |
| 5.79 | < 4.70 | CC(C)c1nn(CC(=O)N[C@H]2C[C@@H](C(C)(C)O)C2)c(=O)c2ccc(C(F)(F)F)cc12 [Final Cpd X108] | – |
| 6.86 | < 4.70 | CC(C)c1ccc2c(=O)n(CC(=O)Nc3cn4cnnc4cn3)nc(C(C)C)c2c1 [X-1086] | – |
| 5.40 | < 4.70 | CC(=O)N1C[C@H](O)C[C@@H](NC(=O)Cn2nc(C(C)C)c3cc(C(F)(F)F)ccc3c2=O)C1 (single isomer, unassigned) [Final Cpd X138] | – |
| 7.48 | 5.58 | CC(C)c1nn(CC(=O)Nc2ccc3nncn3n2)c(=O)c2ccc(C3CC3)cc12 [X-1008] | – |
| 6.40 | < 4.70 | Cc1ncc2ccc(NC(=O)Cn3nc(C(C)C)c4cc(C(F)(F)F)ccc4c3=O)cn12 [Final Cpd X48] | – |
| 6.53 | 4.80 | CC(C)c1nn(CC(=O)Nc2ccc(=O)n(C)n2)c(=O)c2ccc(C(C)(F)F)cc12 [X-1065] | – |
| 5.54 | < 4.70 | CC1(c2nn(CC(=O)Nc3ccc4nncn4c3)c(=O)c3ccc(C(F)(F)F)cc23)CC1 [Final Cpd X125] | – |
| 5.34 | < 4.70 | COC(C)(C)c1ccc2c(=O)n(CC(=O)N[C@H]3C[C@@](C)(O)C3)nc(C(C)C)c2c1 [X-1058] | – |
| 6.05 | < 5.00 | CCc1nn(CC(=O)N[C@H]2CC[C@H](O)CC2)c(=O)c2ccc(Br)cc12 [Final Cpd 24, trans-2-(6-bromo-4-ethyl-1-oxo-phthalazin-2-yl)-N-(4-hydroxycyclohexyl)acetamide] | – |
| 6.88 | < 4.70 | C[C@]1(O)C[C@@H](NC(=O)Cn2nc(C(F)F)c3cc(Br)ccc3c2=O)C1 [X-1020] | – |
| 6.43 | < 4.70 | CC(C)c1nn(CC(=O)N[C@H]2CC[C@H](O)CC2)c(=O)c2ccc(C(F)(F)F)cc12 [Final Cpd X44] | – |
| 5.43 | < 4.70 | CC(C)c1nn(CC(=O)Nc2ccc3nncn3c2)c(=O)c2ccc(C(C)(C)O)cc12 [X-1045] | – |
| 6.26 | < 4.70 | CC(=O)c1nn(CC(=O)Nc2ccc3nncn3c2)c(=O)c2ccc(C(F)(F)F)cc12 [Final Cpd X58] | – |
| 6.03 | < 4.70 | CC(C)c1nn(CC(=O)Nc2ccc3c(C#N)ncn3c2)c(=O)c2ccc(C(F)(F)F)cc12 [Final Cpd X88] | – |
| 6.82 | < 4.70 | Cc1nccc(NC(=O)Cn2nc(C(C)C)c3cc(C4(F)CC4)ccc3c2=O)c1F [X-1075] | – |
| 7.82 | 5.67 | CC(C)c1nn(CC(=O)Nc2ccc3nncn3n2)c(=O)c2ccc(C3(F)CC3)cc12 [X-1007] | – |
| 7.39 | < 4.70 | CC(C)c1nn(CC(=O)Nc2ccc3nncn3n2)c(=O)c2ccc(Br)cc12 [X-1004] | – |
| – | – | CC[C@]1(O)C[C@@H](NC(=O)Cn2nc(C(C)C)c3cc(Br)ccc3c2=O)C1 [X-1090, 2-(6-bromo-4-isopropyl-1-oxophthalazin-2(1H)-yl)-N-((1r,3s)-3-ethyl-3-hydroxycyclobutyl)acetamide] | pIC50 (IL-1β; PBMC): 6.91; pEC50 (TNF; PBMC): < 4.70 |
